Data: patent US11866430B2, “Naphthyridinone compounds useful as T cell activators” (priority 2018, dated 2024)

Legend:
human DGKζ = human DGKζ (Homo sapiens (Human), UniProt Q13574); test: DGKζ LIPGLO assay (extruded liposome substrate); assay type: biochemical; conditions: extruded liposome substrate; read-out: DGKζ LIPGLO IC50
Procedure, shortened: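 Recombinant DGKζ (Sf9-expressed, Ni/SEC/SP-purified) preincubated 10 min with extruded 100 nm PC/DAG/PS liposomes in 50 mM MOPS pH 7.5, 100 mM NaCl, 10 mM MgCl2, 1 μM CaCl2, 1 mM DTT. Started with 300 uM ATP solution (stock, pre-addition); 1 hr reaction. ADP-Glo luminescence; IC50 from 11 concentrations.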

human DGKα = human DGKα (Homo sapiens (Human), UniProt P23743); test: DGKα LIPGLO assay (extruded liposome substrate); assay type: biochemical
Chain of human DGKα (P23743 other isoform, or with tags, fused parts or gaps): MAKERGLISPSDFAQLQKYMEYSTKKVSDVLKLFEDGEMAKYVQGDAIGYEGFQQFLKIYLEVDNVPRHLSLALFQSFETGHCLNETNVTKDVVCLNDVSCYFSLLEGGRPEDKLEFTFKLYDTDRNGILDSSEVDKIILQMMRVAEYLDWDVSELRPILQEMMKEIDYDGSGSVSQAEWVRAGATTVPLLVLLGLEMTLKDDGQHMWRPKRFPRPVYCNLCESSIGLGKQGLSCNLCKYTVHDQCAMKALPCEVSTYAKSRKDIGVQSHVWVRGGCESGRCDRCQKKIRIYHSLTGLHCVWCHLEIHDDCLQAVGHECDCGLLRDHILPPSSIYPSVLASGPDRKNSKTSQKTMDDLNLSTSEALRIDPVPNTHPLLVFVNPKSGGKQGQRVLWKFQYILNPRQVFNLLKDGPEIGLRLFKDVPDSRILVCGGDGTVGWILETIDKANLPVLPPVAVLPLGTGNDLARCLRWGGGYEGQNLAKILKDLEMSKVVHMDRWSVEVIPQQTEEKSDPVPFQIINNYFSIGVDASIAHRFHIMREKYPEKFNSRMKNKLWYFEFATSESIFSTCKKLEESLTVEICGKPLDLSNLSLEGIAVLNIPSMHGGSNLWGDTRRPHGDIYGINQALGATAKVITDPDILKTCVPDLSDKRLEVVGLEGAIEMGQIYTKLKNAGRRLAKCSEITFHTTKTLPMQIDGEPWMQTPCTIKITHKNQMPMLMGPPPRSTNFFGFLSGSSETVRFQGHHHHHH
Procedure, shortened: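 Human full-length DGKα, His-tagged and produced in Sf9 cells, assayed at 20 nM (4× stock) on extruded liposomes of PS, 0.25 mM DAG and 2.75 mM PC, preincubated 10 min. Reaction started with 300 μM ATP (stock) and ran 1 h in MOPS pH 7.5/MgCl2/CaCl2/DTT buffer.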

Chain of human DGKζ (Q13574 other isoform, or with tags, fused parts or gaps): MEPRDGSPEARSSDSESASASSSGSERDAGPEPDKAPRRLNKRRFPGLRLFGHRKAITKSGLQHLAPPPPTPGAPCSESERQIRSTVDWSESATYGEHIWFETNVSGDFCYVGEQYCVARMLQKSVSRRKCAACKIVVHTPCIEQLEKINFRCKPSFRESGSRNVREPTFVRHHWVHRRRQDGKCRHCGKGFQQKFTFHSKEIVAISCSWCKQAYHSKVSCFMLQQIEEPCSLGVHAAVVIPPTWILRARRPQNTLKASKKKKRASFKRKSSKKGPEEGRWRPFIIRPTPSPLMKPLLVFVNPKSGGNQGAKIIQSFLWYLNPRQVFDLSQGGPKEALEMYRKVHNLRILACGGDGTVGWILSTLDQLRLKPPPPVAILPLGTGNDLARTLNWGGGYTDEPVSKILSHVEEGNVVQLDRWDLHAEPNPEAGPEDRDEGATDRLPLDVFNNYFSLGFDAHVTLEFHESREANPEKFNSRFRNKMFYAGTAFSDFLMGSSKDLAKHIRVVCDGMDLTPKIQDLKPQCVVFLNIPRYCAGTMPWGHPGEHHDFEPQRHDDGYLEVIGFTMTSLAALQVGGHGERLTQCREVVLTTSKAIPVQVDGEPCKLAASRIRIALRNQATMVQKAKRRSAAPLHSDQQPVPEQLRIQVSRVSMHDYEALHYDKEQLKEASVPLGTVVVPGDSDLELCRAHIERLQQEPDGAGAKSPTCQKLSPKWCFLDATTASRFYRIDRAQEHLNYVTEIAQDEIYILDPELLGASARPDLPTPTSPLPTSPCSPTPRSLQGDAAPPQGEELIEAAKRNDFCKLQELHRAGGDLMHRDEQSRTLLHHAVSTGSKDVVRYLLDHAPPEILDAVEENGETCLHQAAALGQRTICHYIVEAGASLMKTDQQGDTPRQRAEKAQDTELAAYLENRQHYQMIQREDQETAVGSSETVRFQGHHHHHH

| Structure (SMILES) | IC50 (human DGKζ) [nM] | IC50 (human DGKα) [nM] |
| --- | --- | --- |
| C#CCn1c(=O)c([N+](=O)[O-])c(N2CCN(C(CC)c3ccc(F)cc3)CC2)c2nc(C#N)ccc21 (single isomer, unassigned) [Example 141, 8-{4-[1-(4-fluorophenyl)propyl]piperazin-1-yl}-7-nitro-6-oxo-5-(prop-2-yn-1-yl)-5,6-dihydro-1,5-naphthyridine-2-carbonitrile] | 1400 | 580 |
| Cc1ccc(CN2CCN(c3c(C#N)c(=O)n(C)c4ccc(Cl)nc34)CC2)c(F)c1 [Example 423, 6-chloro-4-{4-[(2-fluoro-4-methylphenyl)methyl]piperazin-1-yl}-1-methyl-2-oxo-1,2-dihydro-1,5-naphthyridine-3-carbonitrile] | 33000 | 2200 |
| Cc1ccc2c(n1)c(N1CCN(Cc3cccc(Cl)c3O)CC1)c(C#N)c(=O)n2C [Example 389, 4-{4-[(3-chloro-2-hydroxyphenyl)methyl]piperazin-1-yl}-1,6-dimethyl-2-oxo-1,2-dihydro-1,5-naphthyridine-3-carbonitrile] | 9400 | 1400 |
| Cc1cccc(CN2CCN(c3c(C#N)c(=O)n(C)c4ccc(Cl)nc34)CC2)c1O [Example 391, 6-chloro-4-{4-[(2-hydroxy-3-methylphenyl)methyl]piperazin-1-yl}-1-methyl-2-oxo-1,2-dihydro-1,5-naphthyridine-3-carbonitrile] | 2100 | 1800 |
| CCCCn1c(=O)c([N+](=O)[O-])c(N2CCN(C(c3ccccc3)c3ccccc3)CC2)c2ncccc21 [Example 177, 4-(4-benzhydrylpiperazin-1-yl)-1-butyl-3-nitro-1,5-naphthyridin-2(1H)-one] | 9700 | > 240000 |
| Cn1c(=O)c(C#N)c(N2CCN(C(C)(C)c3ccc(F)cc3)CC2)c2nc(Cl)ccc21 [Example 425, 6-chloro-4-{4-[2-(4-fluorophenyl)propan-2-yl]piperazin-1-yl}-1-methyl-2-oxo-1,2-dihydro-1,5-naphthyridine-3-carbonitrile] | > 240000 | 20000 |
| CC(c1ccc(F)cc1)N1CCN(c2c([N+](=O)[O-])c(=O)n(C)c3ccc(C#N)nc23)CC1 (single isomer, unassigned) [Example 44, 8-(4-(1-(4-fluorophenyl)ethyl)piperazin-1-yl)-5-methyl-7-nitro-6-oxo-5,6-dihydro-1,5-naphthyridine-2-carbonitrile] | 1300 | 370 |
| Cn1c(=O)c(C#N)c(N2CCN(C(CC(C)(C)C)c3ccc(F)cc3)CC2)c2nc(Cl)ccc21 (single isomer, unassigned) [Example 377, 6-chloro-4-{4-[1-(4-fluorophenyl)-3,3-dimethylbutyl]piperazin-1-yl}-1-methyl-2-oxo-1,2-dihydro-1,5-naphthyridine-3-carbonitrile] | 130000 | > 240000 |
| C#CCn1c(=O)c([N+](=O)[O-])c(N2CCN(C(c3ccc(F)cc3)C3CC3)CC2)c2nc(C#N)ccc21 (single isomer, unassigned) [Example 143, 8-(4-(cyclopropyl(4-fluorophenyl)methyl)piperazin-1-yl)-7-nitro-6-oxo-5-(prop-2-yn-1-yl)-5,6-dihydro-1,5-naphthyridine-2-carbonitrile] | 1100 | 3400 |
| COc1ccc2c(n1)c(N1CCN(C(c3ccc(F)cc3)c3ccc(F)cc3OC)CC1)c(C#N)c(=O)n2C (racemic) [Example 412, 4-{4-[(4-fluoro-2-methoxyphenyl)(4-fluorophenyl)methyl]piperazin-1-yl}-6-methoxy-1-methyl-2-oxo-1,2-dihydro-1,5-naphthyridine-3-carbonitrile] | 600 | 1800 |
| Cn1c(=O)c(C#N)c(N2CCN(Cc3cccc4ccccc34)CC2)c2nc(C#N)ccc21 [Example 404, 5-methyl-8-{4-[(naphthalen-1-yl)methyl]piperazin-1-yl}-6-oxo-5,6-dihydro-1,5-naphthyridine-2,7-dicarbonitrile] | 3900 | 4900 |
| Cc1ccc2c(n1)c(N1CCN(C(C)c3ccc(F)cc3)CC1)c(Br)c(=O)n2C (centres unmarked) [Example 224, 3-bromo-4-(4-(1-(4-fluorophenyl)ethyl)piperazin-1-yl)-1,6-dimethyl-1,5-naphthyridin-2(1H)-one] | 20000 | 140 |
| Cn1c(=O)c(C#N)c(N2CCN(C(CC(C)(C)C)c3ccc(F)cc3)CC2)c2nc(Cl)ccc21 (single isomer, unassigned) [Example 378, 6-chloro-4-{4-[1-(4-fluorophenyl)-3,3-dimethylbutyl]piperazin-1-yl}-1-methyl-2-oxo-1,2-dihydro-1,5-naphthyridine-3-carbonitrile] | > 240000 | 2200 |
